The structures appear in SMILES notation.

In the assay the test system is Colo205 human colon carcinoma cell line. Description: In vitro tumor cell proliferation assay (MTS, CellTiter 96 Aqueous One Solution). The class given is cell-based. To be noted: COLO 205, Colo205 cells, 72 hours compound exposure, MTS absorbance at 490 nm, read-out: IC50 (concentration of test compound required to inhibit proliferation of 50% of the cells). Summed up:
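Colo205 cells seeded at 2000 cells/well in RPMI-1640 with 10% serum, exposed to compound for 72 h at 37 °C, 5% CO2, in a 5-point dose-response up to 10-20 μM. Viability read by MTS absorbance at 490 nm; IC50 from background-corrected percent inhibition by linear regression.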
As for `O=C(O)c1cn(-c2cccc(CN3CCCCC3)c2)c2c(OC(F)(F)F)c(N3CCN(c4ccccc4F)CC3)c(F)cc2c1=O` [Example 144, 6-fluoro-7-[4-(2-fluorophenyl)piperazin-1-yl]-4-oxo-1-[3-(piperidin-1-ylmethyl)phenyl]-8-(trifluoromethoxy)-1,4-dihydroquinoline-3-carboxylic acid], the IC50 was in the range of 2000 to 20000 nM.

On to `COc1c(N2CCN(c3ccc(F)cc3)CC2)c(F)cc2c(=O)c(C(=O)O)cn(-c3ccc(CN(C)C)cc3)c12` [Example 93, 1-{4-[(dimethylamino)methyl]phenyl}-6-fluoro-7-[4-(4-fluorophenyl)piperazin-1-yl]-8-methoxy-4-oxo-1,4-dihydroquinoline-3-carboxylic acid], for which the IC50 is under 500 nM.

On to `O=C(O)c1cn(-c2ccc(CNC3CCCC3)cc2)c2c(OC(F)(F)F)c(N3CCN(c4ccc(F)cc4)CC3)c(F)cc2c1=O` [Example 182, 1-(4-cyclopentylaminomethyl-phenyl)-6-fluoro-7-[4-(4-fluorophenyl)-piperazine-1-yl]-4-oxo-8-trifluoromethoxy-1,4-dihydroquinoline-3-carboxylic acid], for which the IC50 was under 500 nM.

On to `CCN(CC)Cc1ccc(-n2cc(C(=O)O)c(=O)c3cc(F)c(N4CCN(c5ncccc5C#N)CC4)c(OC(F)(F)Cl)c32)cc1` [Example 161, 8-[chloro(difluoro)methoxy]-7-[4-(3-cyanopyridin-2-yl)piperazin-1-yl]-1-{4-[(diethylamino)methyl]phenyl}-6-fluoro-4-oxo-1,4-dihydroquinoline-3-carboxylic acid], for which the IC50 was under 500 nM.

Turning to `COc1c(N2CCN(c3ccccc3F)CC2)c(F)cc2c(=O)c(C(=O)O)cn(-c3ccc(CN4CCCC4)cc3)c12` [Example 75, 6-fluoro-7-[4-(2-fluorophenyl)piperazin-1-yl]-8-methoxy-4-oxo-1-[4-(pyrrolidin-1-ylmethyl)phenyl]-1,4-dihydroquinoline-3-carboxylic acid], the IC50 is 500 to 2000 nM.

For `Cc1cccnc1N1CCN(c2c(F)cc3c(=O)c(C(=O)O)cn(-c4ccc(CN5CCCC5)cc4)c3c2OC(F)(F)F)CC1` [Example 122, 6-fluoro-7-[4-(3-methylpyridin-2-yl)-piperazin-1-yl]-4-oxo-1-[4-(pyrrolidin-1-ylmethyl)phenyl]-8-(trifluoromethoxy)-1,4-dihydroquinoline-3-carboxylic acid], the IC50 is under 500 nM.

Consider `CN(C)Cc1ccc(-n2cc(C(=O)O)c(=O)c3cc(F)c(N4CCN(c5ccccn5)CC4)c(OC(F)(F)Cl)c32)cc1` [Example 154, 8-[chloro(difluoro)methoxy]-1-{4-[(dimethylamino)methyl]phenyl}-6-fluoro-4-oxo-7-(4-pyridin-2-ylpiperazin-1-yl)-1,4-dihydroquinoline-3-carboxylic acid], for which the IC50 is under 500 nM.

As for `COc1c(N2CCN(c3ccc(C#N)cc3)CC2)c(F)cc2c(=O)c(C(=O)O)cn(-c3ccc(CN4CCCC4)cc3)c12` [Example 77, 7-[4-(4-cyanophenyl)piperazin-1-yl]-6-fluoro-8-methoxy-4-oxo-1-[4-(pyrrolidin-1-ylmethyl)phenyl]-1,4-dihydroquinoline-3-carboxylic acid], the IC50 is under 500 nM.

For the compound `N#Cc1ccc(N2CCN(c3c(F)cc4c(=O)c(C(=O)O)cn(-c5ccc(CN6CCCC6)c(F)c5)c4c3Cl)CC2)cc1` [Example 188, 8-chloro-7-[4-(4-cyanophenyl)-piperazine-1-yl]-6-fluoro-1-(3-fluoro-4-pyrrolidin-1-ylmethyl-phenyl)-4-oxo-1,4-dihydroquinoline-3-carboxylic acid], the IC50 was under 500 nM.

Take `COc1c(N2CCN(c3ccccn3)CC2)c(F)cc2c(=O)c(C(=O)O)cn(-c3ccc(CN4CCCCC4)cc3)c12` [Example 194, 6-fluoro-8-methoxy-4-oxo-1-(4-piperidin-1-ylmethyl-phenyl)-7-(4-pyridin-2-yl-piperazine-1-yl]-1,4-dihydroquinoline-3-carboxylic acid]: the IC50 is under 500 nM.

For `CCN(CC)Cc1ccc(-n2cc(C(=O)O)c(=O)c3cc(F)c(N4CCN(c5ccc(C#N)cc5)CC4)c(OC)c32)cc1` [Example 108, 7-[4-(4-cyanophenyl)piperazin-1-yl]-1-{4-[(diethylamino)methyl]phenyl}-6-fluoro-8-methoxy-4-oxo-1,4-dihydroquinoline-3-carboxylic acid], the IC50 was under 500 nM.

For `CCN(CC)Cc1ccc(-n2cc(C(=O)O)c(=O)c3cc(F)c(N4CCN(c5ccccc5)CC4)c(OC(F)(F)F)c32)cc1` [Example 138, 1-{4-[(diethylamino)methyl]phenyl}-6-fluoro-4-oxo-7-(4-phenylpiperazin-1-yl)-8-(trifluoromethoxy)-1,4-dihydroquinoline-3-carboxylic acid], the IC50 is under 500 nM.

With `CCN(CC)Cc1ccc(-n2cc(C(=O)O)c(=O)c3cc(F)c(N4CCN(c5ccccc5[N+](=O)[O-])CC4)c(OC)c32)cc1` [Example 107, 1-{4-[(diethylamino)methyl]phenyl}-6-fluoro-8-methoxy-7-[4-(2-nitrophenyl)piperazin-1-yl]-4-oxo-1,4-dihydroquinoline-3-carboxylic acid], the IC50 was 500 to 2000 nM.

In the case of `O=C(O)c1cn(-c2ccc(CN3CCCC3)cc2)c2c(OC(F)(F)F)c(N3CCN(c4ccc(F)cc4)CC3)c(F)cc2c1=O` [Example 121, 6-fluoro-7-[4-(4-fluorophenyl)piperazin-1-yl]-4-oxo-1-[4-(pyrrolidin-1-ylmethyl)phenyl]-8-(trifluoromethoxy)-1,4-dihydroquinoline-3-carboxylic acid], the IC50 is under 500 nM.

In the case of `O=C(O)c1cn(-c2ccc(CNC3CCCC3)cc2)c2c(OC(F)(F)Cl)c(N3CCN(c4ccccn4)CC3)c(F)cc2c1=O` [Example 180, 8-(chloro-difluoromethoxy)-1-(4-cyclopentylaminomethyl-phenyl)-6-fluoro-4-oxo-7-(4-pyridin-2-yl-piperazin-1-yl)-1,4-dihydroquinoline-3-carboxylic acid], the IC50 is under 500 nM.

Consider `COc1c(N2CCN(c3ncccc3C#N)CC2)c(F)cc2c(=O)c(C(=O)O)cn(-c3ccc(CN4CCCC4)cc3)c12` [Example 79, 7-[4-(3-cyanopyridin-2-yl)piperazin-1-yl]-6-fluoro-8-methoxy-4-oxo-1-[4-(pyrrolidin-1-ylmethyl)phenyl]-1,4-dihydroquinoline-3-carboxylic acid], for which the IC50 was under 500 nM.

For the compound `O=C(O)c1cn(-c2ccc(CN3CCCC3)cc2)c2c(OC(F)(F)Cl)c(N3CCN(c4ccc(Cl)cc4)CC3)c(F)cc2c1=O` [Example 148, 8-[chloro(difluoro)methoxy]-7-[4-(4-chlorophenyl)piperazin-1-yl]-6-fluoro-4-oxo-1-[4-(pyrrolidin-1-ylmethyl)phenyl]-1,4-dihydroquinoline-3-carboxylic acid], the IC50 is under 500 nM.

Take `O=C(O)c1cn(-c2ccc(CN3CCCC3)cc2)c2c(Cl)c(N3CCN(c4ccccn4)CC3)c(F)cc2c1=O` [Example 1, 8-chloro-6-fluoro-4-oxo-7-(4-pyridin-2-yl-piperazin-1-yl)-1-[4-(pyrrolidin-1-ylmethyl)phenyl]-1,4-dihydroquinoline-3-carboxylic acid]: the IC50 was under 500 nM.

For `CCN(CC)Cc1ccc(-n2cc(C(=O)O)c(=O)c3cc(F)c(N4CCN(c5ccc(F)cc5F)CC4)c(OC(F)(F)F)c32)cc1` [Example 137, 1-{4-[(diethylamino)methyl]phenyl}-7-[4-(2,4-difluorophenyl)piperazin-1-yl]-6-fluoro-4-oxo-8-(trifluoromethoxy)-1,4-dihydroquinoline-3-carboxylic acid], the IC50 is under 500 nM.

In the case of `COc1c(N2CCN(c3ccc(Cl)cc3)CC2)c(F)cc2c(=O)c(C(=O)O)cn(-c3ccc(CN4CCCC4)cc3)c12` [Example 80, 7-[4-(4-chlorophenyl)piperazin-1-yl]-6-fluoro-8-methoxy-4-oxo-1-[4-(pyrrolidin-1-ylmethyl)phenyl]-1,4-dihydroquinoline-3-carboxylic acid], the IC50 fell in the range of 500 to 2000 nM.

With `O=C(O)c1cn(-c2ccc(CN3CCCC3)cc2)c2c(Cl)c(N3CCN(c4ccc(Cl)cc4)CC3)c(F)cc2c1=O` [Example 3, 8-chloro-6-fluoro-7-[4-(4-chlorophenyl)-piperazin-1-yl]-4-oxo-1-[4-(pyrrolidin-1-ylmethyl)phenyl]-1,4-dihydroquinoline-3-carboxylic acid], the IC50 is 500 to 2000 nM.

With `O=C(O)c1cn(-c2ccc(CN3CCCC3)nc2)c2c(Cl)c(N3CCN(c4ccc(F)cc4)CC3)c(F)cc2c1=O` [Example 37, 8-chloro-6-fluoro-7-[4-(4-fluorophenyl)-piperazin-1-yl]-4-oxo-1-[6-(pyrrolidin-1-ylmethyl)pyridin-3-yl]-1,4-dihydroquinoline-3-carboxylic acid], the IC50 was under 500 nM.

In the case of `CC1C=CC(C)N1Cc1ccc(-n2cc(C(=O)O)c(=O)c3cc(F)c(N4CCN(c5ncccn5)CC4)c(Cl)c32)cc1` (stereo not shown) [Example 20, 8-chloro-1-{4-[(2,5-dimethyl-2,5-dihydro-1H-pyrrol-1-yl)methyl]phenyl}-6-fluoro-4-oxo-7-(4-pyrimidin-2-ylpiperazin-1-yl)-1,4-dihydroquinoline-3-carboxylic acid], the IC50 fell in the range of 2000 to 20000 nM.

In the case of `CON(C)Cc1ccc(-n2cc(C(=O)O)c(=O)c3cc(F)c(N4CCN(c5ccccn5)CC4)c(Cl)c32)cc1` [Example 49, 8-chloro-6-fluoro-1-(4-{[methoxy(methyl)-amino]methyl}phenyl)-4-oxo-7-(4-pyridin-2-ylpiperazin-1-yl)-1,4-dihydroquinoline-3-carboxylic acid], the IC50 was 2000 to 20000 nM.

Regarding `O=C(O)c1cn(-c2cccc(CN3CCCCC3)c2)c2c(OC(F)(F)F)c(N3CCN(c4ccc(F)cc4)CC3)c(F)cc2c1=O` [Example 141, 6-fluoro-7-[4-(4-fluorophenyl)piperazin-1-yl]-4-oxo-1-[3-(piperidin-1-ylmethyl)phenyl]-8-(trifluoromethoxy)-1,4-dihydroquinoline-3-carboxylic acid], the IC50 was in the range of 500 to 2000 nM.

The values are drawn from patent US20070213339A1 (Bayer Pharmaceuticals Corporation, priority 2004, published 2007).
